From patent US12492197B2, “3,5-disubstituted pyrazole compounds as kinase inhibitors and uses thereof” (IMPACT THERAPEUTICS (SHANGHAI), INC, priority 2019, dated 2025)
pIC50: −log10 of the molar value.

How the values were obtained:
[1] = test system: human colon cancer cell LoVo; test: Proliferation of LoVo cells, MTT assay; format: cell-based; details: 96 h, 4 days treatment, read-out: IC50 (inhibition of proliferation of LoVo)
Procedure: Newly revived LoVo cells (purchased from Shanghai Cell Institute) were cultured and passaged for at least three generations before use. Cells were used at 90% confluence for experiment. Cells were digested with trypsinase and centrifuged at 800 rpm for 5 minutes and the supernatant was discarded. The cell pellets were resuspended in fresh RPMI1640 medium and counted. Cells were seeded on 96-well cell culture plates at 5000 cells/well and incubated overnight at 37° C., 5% CO2. The stock solutions of the test substances (including the test compounds and the reference compound) were serially diluted to 8 concentrations with DMSO at a ratio of 1:3. 5 μL of each series diluted solutions was added to 120 μL of medium (diluted by 25 times) and mixed by shaking. […] The cell culture plates were returned to incubator at 37° C. and 5% CO2 for 4 days. At the end of treatment, the cell viability was determined by MTT colorimetric assay. Cell culture medium in each well was replaced by 100 μL/well of serum-free DMEM medium containing MTT (0.5 mg/mL), and the culture was continued for additional 4 hours. Medium was then discarded and 100 μL/well of DMSO was added.
(§1) Data was analyzed by GraphPad Prism 6.0. The inhibitory effects of compounds on cell proliferation were plotted based on cell viability vs. the logarithm of compound concentration. Cell viability %=(ODcompound−ODbackground)/(ODDMSO−ODbackground)×100.

[2] = test system: human breast cancer cell HCC1806; test: Proliferation of HCC1806 cells, MTT assay; format: cell-based; details: HCC1806, 72 h, 3 days treatment, read-out: IC50 (inhibition of proliferation of HCC1806)
Procedure: Newly revived HCC1806 cells (purchased from Guangzhou Genio) were cultured and passaged for at least three generations before use. Cells were used at 90% confluency for experiments. Cells were digested with trypsinase and centrifuged at 800 rpm for 5 minutes. The cell pellets were resuspended in fresh RPMI1640 medium and cells were counted. Cells were seeded on 96-well cell culture plates at 2000 cells/well and incubated overnight at 37° C., 5% CO2. The stock solutions of the test substances (including the test compounds and the reference compound) were serially diluted to 8 concentrations with DMSO at a ratio of 1:3. Five μL of each of the serially diluted solutions were added to 120 μL of medium (diluted by 25 times) and mixed by shaking. […] The cell culture plates were returned to incubator at 37° C., 5% CO2 for 3 days. At the end of treatment the cell viability was determined by MTT colorimetric assay. Cell culture medium in each well was replaced by 100 μL/well of serum-free fresh medium containing MTT (0.5 mg/mL), and the culture was continued for additional 4 hours.
as §1

CHK1 kinase = target: T1, CHK1 kinase (Homo sapiens, UniProt O14757); test: CHK1 kinase inhibition, ADP-Glo kinase assay; format: biochemical; details: ATP 10 μM, CHK1 1 ng/well; for inhibition at 0.01 µM: compound concentration 10 nM, read-out: Inh % (inhibitory effect on CHK1 kinase activity); for pIC50: read-out: IC50 (inhibitory effect on CHK1 kinase activity)
T1 construct: purchased Promega V1941
T1 sequence (O14757 1-476): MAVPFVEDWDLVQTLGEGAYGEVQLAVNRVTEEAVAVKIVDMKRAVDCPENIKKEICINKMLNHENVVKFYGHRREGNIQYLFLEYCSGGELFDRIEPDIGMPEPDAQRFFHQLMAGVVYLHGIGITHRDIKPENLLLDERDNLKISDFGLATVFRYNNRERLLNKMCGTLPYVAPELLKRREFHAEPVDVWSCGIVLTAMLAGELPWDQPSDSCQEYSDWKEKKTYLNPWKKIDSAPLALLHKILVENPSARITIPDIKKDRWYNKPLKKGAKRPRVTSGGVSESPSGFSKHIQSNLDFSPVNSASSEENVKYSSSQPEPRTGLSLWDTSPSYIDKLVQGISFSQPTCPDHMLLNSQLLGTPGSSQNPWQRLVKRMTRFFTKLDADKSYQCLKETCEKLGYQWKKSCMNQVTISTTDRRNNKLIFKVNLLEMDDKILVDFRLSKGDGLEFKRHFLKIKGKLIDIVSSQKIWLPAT
Procedure: 2 μL of kinase CHK1 (#V1941, Promega), 1 μL of compound diluted with buffer, and 2 μL of ATP substrate was successively added to a 384-well plate (final concentration of CHK1 was 1 ng/well, ATP was 10 μM). The positive control wells contained CHK1, ATP and DMSO whereas the negative control wells contained ATP, DMSO without enzyme. The mixtures were centrifuged at 1000 rpm for 1 minute and kept in darkness at room temperature for 1 hour to react. Then, 5 μL of ADP-Glo reagent was added to each well and incubated at room temperature for 40 minutes. At the end of incubation, 10 μL of kinase detection reagent was added to each well, and the relative chemiluminescence values (RLU) were measured on Varioskan® Flash (Thermo). The following calculation was performed: Inhibition rate %=(RLU of positive control−RLU of compound)/(RLU of positive control−RLU of negative control)×100. Data were analyzed using GraphPad Prism6.0 and fitted using the curve equation: Y=Bottom+(Top-Bottom)/(1+10^((Log IC50−X)*HillSlope)), and IC50 values were calculated.

| Structure (SMILES) | pIC50 [1] | pIC50 [2] | inhibition at 0.01 µM (CHK1 kinase) [%] | pIC50 (CHK1 kinase) |
| --- | --- | --- | --- | --- |
| N#Cc1cnc(Nc2cc(-c3c(F)cc(Br)cc3OC[C@@H]3CNCCO3)[nH]n2)cn1 [Example 60, (S)-5-((5-(4-bromo-2-fluoro-6-(morpholin-2-ylmethoxy)phenyl)-1H-pyrazol-3-yl)amino)pyrazine-2-carbonitrile] | 6.26 | < 6.00 |  |  |
| Cc1cc(F)c(-c2cc(Nc3cnc(C#N)cn3)n[nH]2)c(OCC2CNC2)c1 [Example 61, 5-((5-(2-(azetidin-3-ylmethoxy)-6-fluoro-4-methylphenyl)-1H-pyrazol-3-yl)amino)pyrazine-2-carbonitrile] | 7.01 | 6.96 |  |  |
| COc1cccc(OC[C@H]2CCCOC2)c1-c1cc(Nc2cnc(C#N)cn2)n[nH]1 [Example 34, (S)-5-((5-(2-methoxy-6-((tetrahydro-2H-pyran-3-yl)methoxy)phenyl)-1H-pyrazol-3-yl)amino)pyrazine-2-carbonitrile] | 7.19 | 6.99 | 69 |  |
| N#Cc1cnc(Nc2cc(-c3c(F)cc(F)cc3OC[C@H]3CCCNC3)[nH]n2)cn1 [Example 56, (S)-5-((5-(2,4-difluoro-6-(piperidin-3-ylmethoxy)phenyl)-1H-pyrazol-3-yl)amino)pyrazine-2-carbonitrile] | 7.65 | 7.56 |  | 8.99 |
| COc1cc(F)cc(OCC2CNCCC2(C)C)c1-c1cc(Nc2cnc(C#N)cn2)n[nH]1 (stereo not shown) [Example 50, 5-((5-(2-((4,4-dimethylpiperidin-3-yl)methoxy)-4-fluoro-6-methoxyphenyl)-1H-pyrazol-3-yl)amino)pyrazine-2-carbonitrile] | 7.45 | 7.57 |  |  |
| COc1cccc(OC[C@H]2CCCNC2)c1-c1cc(Nc2cnc(C#N)c(C)n2)n[nH]1 [Example 28, (S)-5-((5-(2-methoxy-6-(piperidin-3-ylmethoxy)phenyl)-1H-pyrazol-3-yl)amino)-3-methylpyrazine-2-carbonitrile] | 7.37 | 7.37 |  | 9.52 |
| COc1cccc(OC[C@H]2CCCNC2)c1-c1cc(Nc2ccc(C#N)cn2)n[nH]1 [Example 24, (S)-6-((5-(2-methoxy-6-(piperidin-3-ylmethoxy)phenyl)-1H-pyrazol-3-yl)amino)nicotinonitrile] | 7.15 | 7.16 | 89 |  |
| Cc1cc(F)c(-c2cc(Nc3cnc(C#N)cn3)n[nH]2)c(OC[C@@H]2CNCCO2)c1 [Example 64, (S)-5-((5-(2-fluoro-4-methyl-6-(morpholin-2-ylmethoxy)phenyl)-1H-pyrazol-3-yl)amino)pyrazine-2-carbonitrile] | 6.49 | 6.17 |  |  |
| COc1cccc(OC[C@H]2CCCNC2)c1-c1cc(Nc2ncc(C#N)nc2C)n[nH]1 [Example 29, (S)-5-((5-(2-methoxy-6-(piperidin-3-ylmethoxy)phenyl)-1H-pyrazol-3-yl)amino)-6-methylpyrazine-2-carbonitrile] | < 6.00 | < 6.00 |  |  |
| N#Cc1cnc(Nc2cc(-c3c(F)cc(Cl)cc3OC[C@@H]3CNCCO3)[nH]n2)cn1 [Example 58, (S)-5-((5-(4-chloro-2-fluoro-6-(morpholin-2-ylmethoxy)phenyl)-1H-pyrazol-3-yl)amino)pyrazine-2-carbonitrile] | 6.04 | < 6.00 |  |  |
| COc1cccc(OC[C@H]2CCCNC2)c1-c1[nH]nc(Nc2cnc(C#N)cn2)c1C [Example 51, (S)-5-((5-(2-methoxy-6-(piperidin-3-ylmethoxy)phenyl)-4-methyl-1H-pyrazol-3-yl)amino)pyrazine-2-carbonitrile] | < 6.00 | < 6.00 |  |  |
| COc1cc(F)cc(OC[C@H]2CNCCS2)c1-c1cc(Nc2cnc(C#N)cn2)n[nH]1 [Example 77-B, (R)-5-((5-(4-fluoro-2-methoxy-6-(thiomorpholin-2-ylmethoxy)phenyl)-1H-pyrazol-3-yl)amino)pyrazine-2-carbonitrile] | 7.76 | 7.78 |  |  |

The next molecules have a higher pIC50 [1] than those just listed; values first:

| pIC50 [1] | pIC50 [2] | inhibition at 0.01 µM (CHK1 kinase) [%] | pIC50 (CHK1 kinase) | Structure (SMILES) |
| --- | --- | --- | --- | --- |
| 8.51 | 8.44 |  |  | COc1cc(F)cc(OC[C@@H]2CNCCS2)c1-c1cc(Nc2cnc(C#N)cn2)n[nH]1 [Example 77-A, (S)-5-((5-(4-fluoro-2-methoxy-6-(thiomorpholin-2-ylmethoxy)phenyl)-1H-pyrazol-3-yl)amino)pyrazine-2-carbonitrile] |
| 7.84 | 7.58 |  | 8.91 | COc1cc(F)cc(OC[C@H]2CCCN2)c1-c1cc(Nc2cnc(C#N)cn2)n[nH]1 [Example 66, (R)-5-((5-(4-fluoro-2-methoxy-6-(pyrrolidin-2-ylmethoxy)phenyl)-1H-pyrazol-3-yl)amino)pyrazine-2-carbonitrile] |
| 8.49 | 8.51 |  |  | CCc1cc(OC)c(-c2cc(Nc3cnc(C#N)cn3)n[nH]2)c(OC[C@H]2CCCNC2)c1 [Example 75, (S)-5-((5-(4-ethyl-2-methoxy-6-(piperidin-3-ylmethoxy)phenyl)-1H-pyrazol-3-yl)amino)pyrazine-2-carbonitrile] |
| 7.79 | 7.51 |  | 9.07 | N#Cc1cnc(Nc2cc(-c3c(F)cccc3OC[C@H]3CCNC3)[nH]n2)cn1 [Example 54, (S)-5-((5-(2-fluoro-6-(pyrrolidin-3-ylmethoxy)phenyl)-1H-pyrazol-3-yl)amino)pyrazine-2-carbonitrile] |
| 8.14 | 7.92 |  | 9.59 | COc1cccc(OC[C@H]2CCCN2)c1-c1cc(Nc2cnc(C#N)cn2)n[nH]1 [Example 65, (R)-5-((5-(2-methoxy-6-(pyrrolidin-2-ylmethoxy)phenyl)-1H-pyrazol-3-yl)amino)pyrazine-2-carbonitrile] |
| 8.64 | 8.55 |  | 9.36 | COc1cc(Cl)cc(OC[C@H]2CCNC2)c1-c1cc(Nc2cnc(C#N)cn2)n[nH]1 [Example 68, (S)-5-((5-(4-chloro-2-methoxy-6-(pyrrolidin-3-ylmethoxy)phenyl)-1H-pyrazol-3-yl)amino)pyrazine-2-carbonitrile] |
| 8.68 | 8.85 |  | 9.10 | COc1cccc(OC[C@@H]2CNCCS2)c1-c1cc(Nc2cnc(C#N)cn2)n[nH]1 [Example 76-A, (S)-5-((5-(2-methoxy-6-(thiomorpholin-2-ylmethoxy)phenyl)-1H-pyrazol-3-yl)amino)pyrazine-2-carbonitrile] |
| 8.22 | 8.24 |  |  | COc1cc(C)cc(OCC2CNC2)c1-c1cc(Nc2cnc(C#N)cn2)n[nH]1 [Example 72, 5-((5-(2-(azetidin-3-ylmethoxy)-6-methoxy-4-methylphenyl)-1H-pyrazol-3-yl)amino)pyrazine-2-carbonitrile] |
